Assay results reported in paper PMC8665847 (European Journal of Medicinal Chemistry, 2021).

Legend:
SARS-CoV-2 3CL^pro = SARS-CoV-2 3CL^pro (Severe acute respiratory syndrome coronavirus 2, UniProt P0DTD1); experiment: biochemical; type: biochemical; conditions: for time dependence of the level of inhibition: incubation time 0-60 min, inhibitor close to its IC50 concentration (Fig. S4)
3CL^pro = 3CL^pro (Severe acute respiratory syndrome coronavirus 2, UniProt P0DTD1); experiment: LC-MS detection of 3CLpro-inhibitor covalent adducts; type: binding, SARS-CoV-2
SARS-CoV 3CL^pro = conditions: cited from earlier work

Q: For `C=CS(=O)(=O)N(c1ccc(C(C)(C)C)cc1)[C@@H](C(=O)N[C@@H](C)c1ccccc1)c1cccnc1` (mixture of isomers) [14g, (S)- and (R)-2-(N-(4-(tert-butyl)phenyl)vinylsulfonamido)-N-((S)-1-phenylethyl)-2-(pyridin-3-yl)acetamide], which inhibition at 50 µM (SARS-CoV-2 3CL^pro) is on record?
A: > 95%

Q: And the “times more potent than diastereomer 14h” value (SARS-CoV-2 3CL^pro; ratio of IC50)?
A: approximately 20 times

Q: With `C=CS(=O)(=O)N(c1ccc(C(C)(C)C)cc1)[C@H](C(=O)N[C@@H](C)c1ccccc1)c1cccnc1` (mixture of isomers) [14h, (S)- and (R)-2-(N-(4-(tert-butyl)phenyl)vinylsulfonamido)-N-((S)-1-phenylethyl)-2-(pyridin-3-yl)acetamide] as the compound, how does the inhibition at 50 µM (SARS-CoV-2 3CL^pro) read?
A: > 95%

Q: For `C=CC(=O)N(c1ccc(C(C)(C)C)cc1)C(C(=O)NC1CCCCC1)c1cccnc1` (stereo not drawn) [6a, N-(4-(tert-butyl)phenyl)-N-(2-(cyclohexylamino)-2-oxo-1-(pyridin-3-yl)ethyl) acrylamide], which IC50 (SARS-CoV-2 3CL^pro) is on record?
A: 11.1 ± 1.5 µM

Q: With `C=CS(=O)(=O)N(c1ccc(C(C)(C)C)cc1)C(C(=O)NC1CCCCC1)c1cccnc1` (stereo not drawn) [14a, 2-(N-(4-(tert-butyl)phenyl)vinylsulfonamido)-N-cyclohexyl-2-(pyridin-3-yl)acetamide] as the compound, how does the IC50 (SARS-CoV-2 3CL^pro) read?
A: 0.5 µM

Q: What about the “time dependence of the level of inhibition” value (SARS-CoV-2 3CL^pro) of the same compound?
A: increased with incubation time

Q: And the “presence of 3CLpro-inhibitor adduct by LC-MS” value (3CL^pro)?
A: confirmed

Q: Which “time dependence of the level of inhibition” value (SARS-CoV-2 3CL^pro) does the source give for `CC(C)(C)c1ccc(N(C(=O)CCl)C(C(=O)NC2CCCCC2)c2cccnc2)cc1` (stereo not drawn) [16a, N-(4-(tert-butyl)phenyl)-2-chloro-N-(2-(cyclohexylamino)-2-oxo-1-(pyridin-3-yl)ethyl) acetamide] here?
A: increased with incubation time

Q: What about the “presence of 3CLpro-inhibitor adduct by LC-MS” value (3CL^pro) of the same compound?
A: confirmed

Q: Which “improvement in potency over alkynylamide analogue 13a” value (SARS-CoV-2 3CL^pro; ratio of IC50) does the source give for `CC(C)(C)c1ccc(N(C(=O)C#CCO)C(C(=O)NC2CCCCC2)c2cccnc2)cc1` (stereo not drawn) [23a, N-(4-(tert-butyl)phenyl)-N-(2-(cyclohexylamino)-2-oxo-1-(pyridin-3-yl)ethyl)-4-hydroxybut-2-ynamide] here?
A: ~10 fold

Q: Which IC50 (SARS-CoV 3CL^pro) does the source give for `CC(C)(C)c1ccc(N(C(=O)c2c[nH]cn2)C(C(=O)NC2CCCCC2)c2cccnc2)cc1` (stereo not drawn) [X77, N-(4-(tert-butyl)phenyl)-N-(2-(cyclohexylamino)-2-oxo-1-(pyridin-3-yl)ethyl)-1H-imidazole-5-carboxamide] here?
A: 3.4 µM
